Assay results as given in paper PMC8865417, “Receptor Interaction Profiles of 4-Alkoxy-3,5-Dimethoxy-Phenethylamines (Mescaline Derivatives) and Related Amphetamines” (Frontiers in Pharmacology, 2022).

Legend:
human TAAR1 = molecular target: T1, human TAAR1 (Homo sapiens, UniProt Q96RJ0); test: Activity at the human TAAR1 (cAMP assay, HEK 293 cells); type: cell-based
T1 construct: expressed in transfected cells; host or cells: HEK 293 cells
T1 sequence (Q96RJ0 1-339): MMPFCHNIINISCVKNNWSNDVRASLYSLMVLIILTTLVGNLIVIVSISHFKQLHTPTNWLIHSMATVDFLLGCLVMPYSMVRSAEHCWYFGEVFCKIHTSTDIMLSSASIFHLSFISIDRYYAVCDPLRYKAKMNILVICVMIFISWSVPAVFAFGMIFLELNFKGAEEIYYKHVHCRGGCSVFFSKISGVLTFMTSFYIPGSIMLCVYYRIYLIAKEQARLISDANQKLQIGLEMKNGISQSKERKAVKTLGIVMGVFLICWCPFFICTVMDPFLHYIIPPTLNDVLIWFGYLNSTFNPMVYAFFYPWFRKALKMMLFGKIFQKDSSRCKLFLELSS
Description: Once 80–90% confluency was reached, the cells were collected by removing the medium, washing with PBS and then adding 5 ml of trypsin/EDTA solution for 5 min at 37°C. Next, 45 ml of medium was added and the entire mixture was transferred into a falcon tube. The tube was then centrifuged at room temperature for 3 min at 900 revolutions per minute (rpm). Next, the supernatant was removed in order to resuspend the remaining cell pellet in fresh medium to 5 × 10^5 cells/ml. Hundred microliter of the cells was transferred into a 96-well plate ([…]; BIOCOAT 6640, Becton Dickinson, Allschwil, Switzerland) and incubated for 20 h at 37°C.
For the cAMP assay, the aspirated medium was replaced with 50 μl PBS without Ca^2+ and Mg^2+ ions. Using snap inversion, the PBS was extracted and the plate was gently tapped against tissue. Next, 90 μl of Krebs-Ringer Bicarbonate buffer (KRB, Sigma-Aldrich) containing 1 mM IBMX was added and incubated for 60 min at 37°C and 5% CO2/95% air. Each test compound was examined in duplicate in a concentration range between 300 pM and 30 μM. A standard curve with a range of cAMP concentrations (0.13 nM–10 μM) was created for each 96-well plate. Each experiment was accompanied with a reference plate that included RO5256390, β-phenylethylamine and p-tyramine. The cells were exposed to either 30 μl of compound solution, 30 μl of β-phenylethylamine (as maximal response), or a basal control in PBS (containing 1 mM IBMX) for 40 min at 37°C. Next, under forceful shaking using black lids, the cells were exposed to 50 μl of 3× detection mix solution (composed of Ru-cAMP Alexa700 anti-cAMP antibody and lysis buffer) for 120 min at room temperature. Using the NanoScan reader (Innovate Optische Messtechnik, Berlin, Germany; 456 nm excitation wavelength; 630 and 700 nm emission wavelengths), the fluorescence was examined and the FRET signal was determined using the following equation; FRET (700 nm)- P × FRET (630 nm), where P = Ru (700 nm)/Ru (630 nm).

rat TAAR1 = molecular target: T2, rat TAAR1 (Rattus norvegicus, UniProt Q923Y9); test: Radioligand binding at rat TAAR1 ([3H]RO5166017)
T2 construct: expressed in transfected cells; host or cells: HEK 293 cells (membrane preparations)
T2 sequence (Q923Y9 whole entry): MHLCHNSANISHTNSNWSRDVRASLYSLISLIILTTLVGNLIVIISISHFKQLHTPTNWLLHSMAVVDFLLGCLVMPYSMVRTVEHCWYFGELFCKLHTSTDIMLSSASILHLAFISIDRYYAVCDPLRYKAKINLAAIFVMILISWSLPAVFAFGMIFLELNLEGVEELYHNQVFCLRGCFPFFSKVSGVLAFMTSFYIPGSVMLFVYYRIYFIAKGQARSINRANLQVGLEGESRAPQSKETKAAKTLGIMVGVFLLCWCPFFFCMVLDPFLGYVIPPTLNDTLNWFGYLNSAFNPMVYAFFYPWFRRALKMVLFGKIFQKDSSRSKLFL

hDAT = molecular target: T3, hDAT (Homo sapiens, UniProt Q01959); test: Radioligand binding at hDAT ([3H]WIN35,428)
T3 construct: expressed in transfected cells; host or cells: HEK 293 cells (membrane preparations)
T3 sequence (Q01959 whole entry): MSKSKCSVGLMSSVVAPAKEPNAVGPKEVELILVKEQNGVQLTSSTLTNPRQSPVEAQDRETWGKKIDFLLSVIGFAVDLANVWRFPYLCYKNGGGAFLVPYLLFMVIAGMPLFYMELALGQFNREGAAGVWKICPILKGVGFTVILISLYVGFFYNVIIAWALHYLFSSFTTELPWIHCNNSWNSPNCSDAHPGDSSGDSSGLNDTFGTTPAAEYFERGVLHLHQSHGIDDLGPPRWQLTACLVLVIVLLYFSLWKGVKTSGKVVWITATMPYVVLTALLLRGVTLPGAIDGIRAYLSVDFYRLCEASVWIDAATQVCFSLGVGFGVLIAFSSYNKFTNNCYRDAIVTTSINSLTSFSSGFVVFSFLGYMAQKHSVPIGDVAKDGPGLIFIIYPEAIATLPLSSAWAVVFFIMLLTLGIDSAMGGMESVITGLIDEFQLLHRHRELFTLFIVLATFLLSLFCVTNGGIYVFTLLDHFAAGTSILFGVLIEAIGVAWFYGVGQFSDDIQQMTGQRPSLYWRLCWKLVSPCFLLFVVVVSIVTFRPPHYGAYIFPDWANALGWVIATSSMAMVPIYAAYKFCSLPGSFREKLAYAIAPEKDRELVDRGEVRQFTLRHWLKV

humans = conditions: ref Trachsel 2012; cited from earlier work
human 5-HT2A receptor = human 5-HT2A receptor (Homo sapiens, UniProt P28223); conditions: for Emax: NIH3T3, read-out: h5-HT2A Activation efficacy max ± SD, relative to 5-HT = 100%
Sequence of human 5-HT2A receptor (P28223 whole entry): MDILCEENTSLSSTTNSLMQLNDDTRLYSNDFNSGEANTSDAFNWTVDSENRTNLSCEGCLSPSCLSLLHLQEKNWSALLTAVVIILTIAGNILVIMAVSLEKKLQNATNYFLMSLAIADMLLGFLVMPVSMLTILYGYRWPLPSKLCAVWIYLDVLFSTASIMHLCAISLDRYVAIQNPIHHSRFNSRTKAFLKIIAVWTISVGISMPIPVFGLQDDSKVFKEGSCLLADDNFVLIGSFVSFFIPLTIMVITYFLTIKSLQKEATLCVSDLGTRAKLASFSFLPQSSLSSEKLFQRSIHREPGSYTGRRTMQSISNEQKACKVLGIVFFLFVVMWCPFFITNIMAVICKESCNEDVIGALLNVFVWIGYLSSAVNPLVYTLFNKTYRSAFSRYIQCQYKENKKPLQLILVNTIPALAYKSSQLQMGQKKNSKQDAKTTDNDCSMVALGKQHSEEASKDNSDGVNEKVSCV

human 5-HT2B receptor = human 5-HT2B receptor (Homo sapiens, UniProt P41595); conditions: for Emax: HEK293, read-out: h5-HT2B Activation efficacy max ± SD, relative to 5-HT = 100%; for EC50: h5-HT2B Activation potency EC50 ± SD, HEK 293 cells, calcium FLIPR, mean ± SD
Sequence of human 5-HT2B receptor (P41595 whole entry): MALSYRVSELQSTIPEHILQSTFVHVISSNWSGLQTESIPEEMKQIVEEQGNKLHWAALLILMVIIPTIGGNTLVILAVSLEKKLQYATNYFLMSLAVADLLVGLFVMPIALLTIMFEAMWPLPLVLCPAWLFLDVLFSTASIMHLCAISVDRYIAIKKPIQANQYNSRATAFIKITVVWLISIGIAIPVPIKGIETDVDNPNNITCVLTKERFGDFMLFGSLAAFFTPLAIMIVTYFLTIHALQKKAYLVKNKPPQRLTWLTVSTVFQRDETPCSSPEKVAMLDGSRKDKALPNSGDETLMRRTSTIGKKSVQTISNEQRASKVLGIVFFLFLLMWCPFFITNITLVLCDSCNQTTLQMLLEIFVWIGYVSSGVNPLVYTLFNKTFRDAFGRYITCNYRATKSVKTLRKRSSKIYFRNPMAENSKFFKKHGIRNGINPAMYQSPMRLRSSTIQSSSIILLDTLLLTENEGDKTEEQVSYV

head twitch response = tested on: head twitch response; parameters: method as in Halberstadt et al. (2019); conditions: ref Halberstadt et al. (2019); cited from earlier work

## COc1cc(CCN)cc(OC)c1OC(F)(F)F [compound 13, 4-trifluoromethoxy-3,5-dimethoxyphenethylamine]
Human TAAR1
  EC50: > 10 µM
Rat TAAR1
  Ki: 170 ± 10 nM
hDAT
  Ki: > 8.5 µM
humans
  Increase in human potency compared to mescaline (5): > 9 fold
Human 5-HT2A receptor
  EC50: 280 ± 120 nM
Human 5-HT2B receptor
  Emax: 45 ± 6%
  EC50: 0.088 ± 0.02 µM

## COc1cc(CC(C)N)cc(OC)c1OC(F)F (centres unmarked) [compound 14, 4-difluoromethoxy-3,5-dimethoxyamphetamine]
Human TAAR1
  EC50: > 10 µM
Rat TAAR1
  Ki: 380 ± 20 nM
hDAT
  Ki: > 8.5 µM
Human 5-HT2A receptor
  EC50: 76 ± 40 nM
Human 5-HT2B receptor
  Emax: 18 to 29%
  EC50: 0.15 ± 0.1 µM

## COc1cc(CCN)cc(OC)c1OCC(F)(F)F [compound 18, 3,5-dimethoxy-4-(2,2,2-trifluoroethoxy)phenethylamine]
Human TAAR1
  EC50: > 10 µM
Rat TAAR1
  Ki: 1200 nM
hDAT
  Ki: > 8.5 µM
Human 5-HT2A receptor
  EC50: 960 ± 50 nM
  Emax: 44 to 78%
Human 5-HT2B receptor
  Emax: 29 ± 14%
  EC50: 0.21 ± 0.13 µM

## COc1cc(CCN)cc(OC)c1OC(CF)CF [compound 23, 3,5-dimethoxy-4-(1,3-difluoroprop-2-yloxy)phenethylamine]
Human TAAR1
  EC50: > 10 µM
Rat TAAR1
  Ki: > 4700 nM
hDAT
  Ki: > 8.5 µM
Human 5-HT2B receptor
  EC50: > 10 µM

## COc1cc(CCN)cc(OC)c1OCCCF [compound 25, 3,5-dimethoxy-4-(3-fluoropropoxy)-phenethylamine]
Human TAAR1
  EC50: > 10 µM
Rat TAAR1
  Ki: 1700 nM
hDAT
  Ki: > 8.5 µM
Human 5-HT2A receptor
  EC50: 4500 nM
  Emax: 85 to 94%
Human 5-HT2B receptor
  EC50: > 10 µM

## COc1cc(CCN)cc(OC)c1OCCC(F)(F)F [compound 26, 3,5-dimethoxy-4-(3,3,3-trifluoropropoxy)phenethylamine]
Human TAAR1
  EC50: > 10 µM
Rat TAAR1
  Ki: 910 ± 90 nM
hDAT
  Ki: > 8.5 µM
Human 5-HT2A receptor
  EC50: 4900 nM
Human 5-HT2B receptor
  EC50: > 10 µM

## CCCOc1c(OC)cc(CC(C)N)cc1OC (centres unmarked) [compound 28, 3,5-dimethoxy-4-propyloxyamphetamine]
Human TAAR1
  EC50: > 10 µM
Rat TAAR1
  Ki: 3400 nM
hDAT
  Ki: > 8.5 µM
Head twitch response
  Head twitch response: induced a head twitch response with almost identical potency
Human 5-HT2A receptor
  EC50: 160 ± 20 nM
  Emax: 86 to 102%
Human 5-HT2B receptor
  EC50: > 10 µM

## COc1cc(CCN)cc(OC)c1OC1CC1 [compound 29, 4-cyclopropyloxy-3,5-dimethoxyphenethylamine]
Human TAAR1
  EC50: > 10 µM
Rat TAAR1
  Ki: 1200 nM
hDAT
  Ki: > 8.5 µM
Human 5-HT2A receptor
  EC50: 2600 nM
  Emax: 85 to 94%
Human 5-HT2B receptor
  EC50: > 10 µM

## C=C(C)COc1c(OC)cc(CCN)cc1OC [compound 32, 3,5-dimethoxy-4-methallyloxyphenethylamine]
Human TAAR1
  EC50: > 10 µM
Rat TAAR1
  Ki: 1000 nM
hDAT
  Ki: > 8.5 µM
Human 5-HT2A receptor
  EC50: 79 ± 12 nM
  Emax: 85 to 94%
Human 5-HT2B receptor
  EC50: > 10 µM

## COc1cc(CCN)cc(OC)c1OCc1ccccc1 [compound 33, 4-benzyloxy-3,5-dimethoxyphenethylamine]
Human TAAR1
  EC50: > 10 µM
Rat TAAR1
  Ki: 110 ± 10 nM
hDAT
  Ki: > 8.5 µM
Human 5-HT2A receptor
  EC50: 27 ± 8 nM
Human 5-HT2B receptor
  EC50: > 10 µM
